Test [1] addresses T1, human CB1 (hCB1) receptor (Homo sapiens, UniProt P21554).
T1 construct: expressed in transfected cells; host or cells: CHO (Chinese hamster ovary) cells, membranes
Nature of the test: CB1 binding assay, competitive binding of [3H]CP 55940. To be noted: for % Inhibition of Control Specific Binding / % of Control Specific Binding 1st / % of Control Specific Binding 2nd / % of Control Specific Binding Mean: CB1, Test Concentration 1.0E−05 (MD); for % of Control Specific Binding 1st: 1st determination; for % of Control Specific Binding 2nd: 2nd determination; for inhibition at 10 µM / inhibition at 1 µM: specific binding of [3H]-CP55940; for inhibition at 1 µM: CHO membranes. As to the method:
Cell membrane homogenates (25 μg protein) are incubated for 120 min at 37° C. with 0.5 nM [^3H]CP 55940 (the reference standard [Rinaldi-Carmona, 1996 #1320]) in the absence or presence of the test compound in a buffer containing 50 mM Tris HCl (pH 7.4), 5 mM MgCl2, 2.5 mM EDTA, and 0.3% bovine serum albumin (BSA). […]
(§1) […] [^3H]-CP55940 at a concentration of 0.5 nM and [^3H]-WIN55212 at a concentration of 0.8 nM were used as radioligands for hCB1 and hCB2 assays, respectively. The results are expressed as a percent inhibition of control specific binding. Compounds which displaced the radioligand by more than 50% for either hCB1 or hCB2 receptors were arbitrary chosen for functional activity determination.

The target of test [2] is T2, human CB2 (hCB2) receptor (Homo sapiens, UniProt P34972).
T2 construct: expressed in transfected cells; host or cells: CHO (Chinese hamster ovary) cells, membranes
Nature of the test: CB2 binding assay, competitive binding of [3H]WIN 55212-2. To be noted: for % Inhibition of Control Specific Binding / % of Control Specific Binding 1st / % of Control Specific Binding 2nd / % of Control Specific Binding Mean: CB2, Test Concentration 1.0E−05 (MD); for % of Control Specific Binding 1st: 1st determination; for % of Control Specific Binding 2nd: 2nd determination; for inhibition at 10 µM / inhibition at 1 µM: specific binding of [3H]-WIN55212-2; for inhibition at 1 µM: CHO membranes. The method, then: Cell membrane homogenates (15 μg protein) are incubated for 120 min at 37° C. with 0.8 nM [^3H]WIN 55212-2 (the reference standard [Munro, 1993 #1321]) in the absence or presence of the test compound in a buffer containing 50 mM HEPES/Tris HCL (pH 7.4), 5 mM MgCl2, 2.5 mM EGTA, and 0.1% BSA. Nonspecific binding is determined in the presence of 10 μM WIN 55212-2. After being incubated, the samples are filtered rapidly under vacuum through glass fiber filters (GF/B; Packard) presoaked with 0.3% PEI and rinsed several times with ice-cold buffer containing 50 mM Tris HCl (pH 7.4) and 0.5% BSA using a 96-sample cell harvester (Unifilter; Packard). The filters are dried then counted for radioactivity in a scintillation counter (Topcount; Packard) using a scintillation cocktail (Microscint 0; Packard). The results are expressed as a percentage of the inhibition of the control radioligand-specific binding. The reference standard compounds are tested in each experiment at several concentrations to obtain a competition curve from which its IC50 is calculated.
as §1

[3] abbreviates: at 10 μM, read-out: % inhibition hCB2 receptor.
[4] abbreviates: read-out: % inhibition hCB2 receptor, at 1 μM.
The mark [5] stands for this setting: read-out: % inhibition hCB2 receptor, at 10 μM.

Where two headings read alike, the source gives them in different places.

T1 sequence (P21554 whole entry): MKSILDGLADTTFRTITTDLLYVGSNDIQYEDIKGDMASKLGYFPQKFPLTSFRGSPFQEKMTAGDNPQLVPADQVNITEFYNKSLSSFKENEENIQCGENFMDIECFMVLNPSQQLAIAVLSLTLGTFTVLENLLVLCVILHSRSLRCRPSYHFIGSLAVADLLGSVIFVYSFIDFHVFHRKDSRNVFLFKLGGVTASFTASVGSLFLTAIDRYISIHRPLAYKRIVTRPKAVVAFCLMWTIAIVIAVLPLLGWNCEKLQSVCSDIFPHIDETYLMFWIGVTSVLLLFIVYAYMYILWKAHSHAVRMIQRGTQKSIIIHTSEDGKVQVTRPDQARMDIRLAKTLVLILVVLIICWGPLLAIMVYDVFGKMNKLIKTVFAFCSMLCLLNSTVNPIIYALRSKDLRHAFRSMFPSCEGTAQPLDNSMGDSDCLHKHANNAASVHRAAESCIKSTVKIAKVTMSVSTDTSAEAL
T2 sequence (P34972 whole entry): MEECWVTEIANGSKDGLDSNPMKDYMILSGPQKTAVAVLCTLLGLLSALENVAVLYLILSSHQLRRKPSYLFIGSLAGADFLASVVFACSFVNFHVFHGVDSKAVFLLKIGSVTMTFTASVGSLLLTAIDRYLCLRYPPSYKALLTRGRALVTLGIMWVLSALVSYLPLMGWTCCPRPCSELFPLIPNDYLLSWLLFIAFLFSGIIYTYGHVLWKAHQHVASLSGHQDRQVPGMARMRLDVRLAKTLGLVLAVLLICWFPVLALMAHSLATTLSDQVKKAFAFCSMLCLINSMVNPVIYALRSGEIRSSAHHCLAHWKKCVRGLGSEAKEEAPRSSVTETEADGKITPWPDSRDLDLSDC

Regarding `CCCCCCN1C(=O)/C(=N\NS(=O)(=O)c2ccccc2)c2ccccc21` [Example 9, Phenyl sulfonyl[1-n-hexyl-2-oxo-1,2-dihydro-indol-3-ylidene]-hydrazide], in test [1], the “% Inhibition of Control Specific Binding” value is given as 8%, the “% of Control Specific Binding 1st” value came to 87.7%, the “% of Control Specific Binding 2nd” value was 96.1% and the “% of Control Specific Binding Mean” value is listed as 91.9%. The inhibition (commonly the relative decrease from the control value, in per cent) at 10 µM in test [1] is less than 40%. Also, in test [2], the “% Inhibition of Control Specific Binding” value is −14%, the “% of Control Specific Binding 1st” value is reported as 126.5%, the “% of Control Specific Binding 2nd” value turned out to be 100.6% and the “% of Control Specific Binding Mean” value worked out at 113.5%. The inhibition at 10 µM in test [2] (setting [3]) was less than 40%.

As for `CCCCCCN1C(=O)/C(=N\NC(=O)c2ccccc2)c2cc(Cl)ccc21` [Example 34, N′-[(3Z)-5-chloro-1-hexyl-2-oxo-1,2-dihydro-3H-indol-3-ylidene]benzohydrazide], the inhibition at 1 µM worked out at 9 ± 1.4% in test [1] and 6 ± 1.4% in test [2] (setting [4]).

On to `CCCCCCN1C(=O)/C(=N\NC(=S)Nc2ccccc2)c2ccccc21` [Example 2, Phenyl thiocarbamoyl[1-n-hexyl-2-oxo-1,2-dihydro-indol-3-ylidene]-hydrazide], for which, in test [1], the “% of Control Specific Binding 1st” value worked out at 45.8%, the “% of Control Specific Binding 2nd” value was 56.1%, the “% of Control Specific Binding Mean” value came out at 51% and testing at 10 µM gave an inhibition of 49 ± 5.2%. Also, in test [2], the “% Inhibition of Control Specific Binding” value was determined as 38%, the “% of Control Specific Binding 1st” value stood at 59.8%, the “% of Control Specific Binding 2nd” value was determined as 64.7% and the “% of Control Specific Binding Mean” value was found to be 62.3%. In addition, the inhibition at 10 µM in test [2] (setting [3]) worked out at 37.7 ± 2.5%.

With `CCCCCCN1C(=O)/C(=N\NC(=O)c2ccccc2)c2cc(C)ccc21` [Example 31, N′-[(3Z)-1-hexyl-5-methyl-2-oxo-1,2-dihydro-3H-indol-3-ylidene]benzohydrazide], the inhibition at 1 µM in test [1] came to 22 ± 0.9%; in test [2] (setting [4]) it was 1 ± 2.7%.

As for `CCCCCCN1C(=O)/C(=N\NC(=O)Nc2ccccc2)c2ccccc21` [Example 4, Phenyl carbamoyl[1-n-hexyl-2-oxo-1,2-dihydro-indol-3-ylidene]-hydrazide], in test [1], the “% Inhibition of Control Specific Binding” value came out at 37%, the “% of Control Specific Binding 1st” value is given as 64.3%, the “% of Control Specific Binding 2nd” value was found to be 61.4% and the “% of Control Specific Binding Mean” value is reported as 62.9%. Also, the inhibition at 10 µM in test [1] was less than 40%. In test [2], the “% Inhibition of Control Specific Binding” value was −8%, the “% of Control Specific Binding 1st” value is given as 105.7%, the “% of Control Specific Binding 2nd” value came out at 109.7% and the “% of Control Specific Binding Mean” value is reported as 107.7%. Also, the inhibition at 10 µM in test [2] (setting [5]) was less than 40%.

For `O=C1/C(=N\NS(=O)(=O)c2ccccc2)c2ccccc2N1CCC1CCCCC1` [Example 8], in test [1], the “% Inhibition of Control Specific Binding” value was determined as 16%, the “% of Control Specific Binding 1st” value was 77.2%, the “% of Control Specific Binding 2nd” value is 90% and the “% of Control Specific Binding Mean” value was determined as 83.6%. Moreover, in test [1], the inhibition at 10 µM was less than 40%. Besides, in test [2], the “% Inhibition of Control Specific Binding” value came to 9%, the “% of Control Specific Binding 1st” value was determined as 89.2%, the “% of Control Specific Binding 2nd” value is 93.3% and the “% of Control Specific Binding Mean” value came out at 91.2%. Also, in test [2] (setting [3]), the inhibition at 10 µM is less than 40%.

Consider `CCCCCN1C(=O)/C(=N\NC(=O)c2ccccc2)c2cc(I)ccc21` [Example 35, N′-[(3Z)-5-iodo-2-oxo-1-pentyl-1,2-dihydro-3H-indol-3-ylidene]benzohydrazide], for which the inhibition at 1 µM in test [1] worked out at 25 ± 0.2%; in test [2] (setting [4]), 10 ± 0.2%.

Consider `CCCCCCN1C(=O)/C(=N\NC(=O)c2ccccc2)c2cc(OC)ccc21` [Example 32, N′-[(3Z)-1-hexyl-5-methoxy-2-oxo-1,2-dihydro-3H-indol-3-ylidene]benzohydrazide], for which the inhibition at 1 µM in test [1] is 26 ± 3.1%; in test [2] (setting [4]), 17 ± 1.2%.

In the case of `CCCCCCN1C(=O)/C(=N\NC(=O)c2ccc3ccccc3c2)c2ccccc21` [Example 16, N′-[(3Z)-1-hexyl-2-oxo-1,2-dihydro-3H-indol-3-ylidene]-2-naphthohydrazide], the inhibition at 1 µM in test [1] and in test [2] (setting [4]) was less than 30% throughout.

Take `O=C(N/N=C1\C(=O)N(CCC2CCCCC2)c2ccccc21)Nc1ccccc1` [Example 3]: in test [1], the “% Inhibition of Control Specific Binding” value stood at 34%, the “% of Control Specific Binding 1st” value is 54.1%, the “% of Control Specific Binding 2nd” value was determined as 78.5% and the “% of Control Specific Binding Mean” value was 66.3%. This molecule also gave an inhibition at 10 µM in test [1] of less than 40%. In test [2], the “% Inhibition of Control Specific Binding” value is on record as −3%, the “% of Control Specific Binding 1st” value is listed as 98.6%, the “% of Control Specific Binding 2nd” value is 107.1% and the “% of Control Specific Binding Mean” value is 102.8%. Also, the inhibition at 10 µM in test [2] (setting [5]) was less than 40%.

Regarding `CCCCCCN1C(=O)/C(=N\NC(=O)CCCCC)c2ccccc21` [Example 12, N′-[(3Z)-1-hexyl-2-oxo-1,2-dihydro-3H-indol-3-ylidene]hexanohydrazide], the inhibition at 1 µM in test [1] turned out to be 45.2 ± 9.5%; in test [2] (setting [4]), 36.6 ± 8.8%.

As for `O=C1/C(=N\NC(=S)Nc2ccccc2)c2ccccc2N1CCC1CCCCC1` [Example 1, Phenyl thiocarbamoyl[1-(2-cyclohexyl-ethyl)-2-oxo-1,2-dihydro-indol-3-ylidene]-hydrazide], in test [1], the “% Inhibition of Control Specific Binding” value amounted to 36%, the “% of Control Specific Binding 1st” value is 68.6%, the “% of Control Specific Binding 2nd” value is recorded as 59.6% and the “% of Control Specific Binding Mean” value is reported as 64.1%. In addition, the inhibition at 10 µM in test [1] is less than 40%. In addition, in test [2], the “% Inhibition of Control Specific Binding” value is reported as 15%, the “% of Control Specific Binding 1st” value came out at 83.3%, the “% of Control Specific Binding 2nd” value is 87.6% and the “% of Control Specific Binding Mean” value came to 85.4%. In test [2] (setting [3]), the inhibition at 10 µM was less than 40%.

With `CCCCCCCCCCCCN1C(=O)/C(=N\NC(=O)c2ccccc2)c2ccccc21` [Example 24, N′-[(3Z)-1-(1-dodecyl)-2-oxo-1,2-dihydro-3H-indol-3-ylidene]benzohydrazide], the figures for the inhibition at 1 µM in test [1] and in test [2] (setting [4]) were 23.8 ± 4.5% and 24.3 ± 4.1%, respectively.

Turning to `CCCCCCN1C(=O)/C(=N\NC(=O)c2ccc(Cl)cc2)c2ccccc21` [Example 13, 4-chloro-N′-[(3Z)-1-hexyl-2-oxo-1,2-dihydro-3H-indol-3-ylidene]benzohydrazide], the values for the inhibition at 1 µM in test [1] and in test [2] (setting [4]) were 46.6 ± 4.3% and 32.7 ± 5.3%, respectively.

For `O=C(N/N=C1\C(=O)N(CCN2C(=O)c3ccccc3C2=O)c2ccccc21)c1ccccc1` [Example 27, N′-{[3Z]-1-[2-(1,3-dioxo-1,3-dihydro-2H-isoindol-2-yl)ethyl]-2-oxo-1,2-dihydro-3H-indol-3-ylidene}benzohydrazide], the inhibition at 1 µM was 3 ± 4.1% in test [1] and 3 ± 3.2% in test [2] (at 1 μM, read-out: % inhibition hCB2 receptor).

On to `CCCCCCN1C(=O)/C(=N\NC(=O)c2cc3ccccc3s2)c2ccccc21` [Example 18, N′-[(3Z)-1-hexyl-2-oxo-1,2-dihydro-3H-indol-3-ylidene]-1-benzothiophene-2-carbohydrazide], for which the inhibition at 1 µM in test [1] and in test [2] (setting [4]) was less than 30% each time.

Values taken from patent US9079854B2 (priority 2007, dated 2015).
